Measurements as given in PubChem BioAssay (NCI).
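Step 1: Grow cells in 96-well plates. Step 2: Expose to compound for 48 hours at 5 concentrations. Step 3: Interpolate endpoints linearly; if unreached, use highest concentration. TGI: concentration producing complete growth inhibition.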

How the values were obtained:
Assay in all cases: growth of human tumour cells (NCI), 48 h
HOP-92 NSCLC = system: HOP-92 NSCLC
SK-MEL-5 melanoma = system: SK-MEL-5 melanoma
DU-145 prostate = system: DU-145 prostate
U251 CNS = system: U251 CNS
SF-268 CNS = system: SF-268 CNS
HOP-62 NSCLC = system: HOP-62 NSCLC
MALME-3M melanoma = system: MALME-3M melanoma
UACC-62 melanoma = system: UACC-62 melanoma
EKVX NSCLC = system: EKVX NSCLC
A498 renal = system: A498 renal
NCI-H522 lung = system: NCI-H522 lung
LOX IMVI melanoma = system: LOX IMVI melanoma
SK-MEL-2 melanoma = system: SK-MEL-2 melanoma
HCC-2998 colon = system: HCC-2998 colon
A549 NSCLC = system: A549 NSCLC
SW-620 colon = system: SW-620 colon
COLO 205 colon = system: COLO 205 colon
OVCAR-3 ovarian = system: OVCAR-3 ovarian
UO-31 renal = system: UO-31 renal
IGROV1 ovarian = system: IGROV1 ovarian

N#Cc1cc2c(cc1C#N)SCCSCCCSCCS2
TGI (HOP-92 NSCLC): 7.05 µM
TGI (SK-MEL-5 melanoma): > 100 µM
TGI (DU-145 prostate): > 100 µM
TGI (U251 CNS): 28.2 µM
TGI (SF-268 CNS): 29.9 µM
TGI (HOP-62 NSCLC): 4.95 µM
TGI (MALME-3M melanoma): > 65.1 µM
TGI (UACC-62 melanoma): 27.6 µM
TGI (EKVX NSCLC): > 100 µM
TGI (A498 renal): > 92.1 µM
TGI (NCI-H522 lung): > 85.7 µM
TGI (LOX IMVI melanoma): 22.7 µM
TGI (SK-MEL-2 melanoma): 42.8 µM
TGI (HCC-2998 colon): > 100 µM
TGI (A549 NSCLC): > 100 µM
TGI (SW-620 colon): > 100 µM
TGI (COLO 205 colon): > 100 µM
TGI (OVCAR-3 ovarian): > 100 µM
TGI (UO-31 renal): > 90.6 µM
TGI (IGROV1 ovarian): 97.8 µM

CCCc1nnc2sc(COc3ccc(OCc4nn5c(CCC)nnc5s4)c(Cl)c3)nn12
TGI (HOP-92 NSCLC): 80.6 µM
TGI (SK-MEL-5 melanoma): 21.2 µM
TGI (DU-145 prostate): > 100 µM
TGI (U251 CNS): > 100 µM
TGI (SF-268 CNS): > 100 µM
TGI (HOP-62 NSCLC): > 100 µM
TGI (MALME-3M melanoma): > 100 µM
TGI (UACC-62 melanoma): 59.4 µM
TGI (EKVX NSCLC): 48.1 µM
TGI (A498 renal): 74.5 µM
TGI (NCI-H522 lung): > 100 µM
TGI (LOX IMVI melanoma): > 100 µM
TGI (SK-MEL-2 melanoma): > 100 µM
TGI (HCC-2998 colon): 64.1 µM
TGI (A549 NSCLC): > 100 µM
TGI (SW-620 colon): > 100 µM
TGI (COLO 205 colon): > 100 µM
TGI (OVCAR-3 ovarian): > 100 µM
TGI (UO-31 renal): 31.8 µM
TGI (IGROV1 ovarian): > 100 µM

COc1ccc2c(c1)/C(=C/c1c(O)[nH]c(=S)[nH]c1=O)C=N2
TGI (HOP-92 NSCLC): > 100 µM
TGI (SK-MEL-5 melanoma): > 100 µM
TGI (DU-145 prostate): > 100 µM
TGI (U251 CNS): > 100 µM
TGI (SF-268 CNS): 61.8 µM
TGI (HOP-62 NSCLC): > 100 µM
TGI (MALME-3M melanoma): > 100 µM
TGI (UACC-62 melanoma): > 100 µM
TGI (EKVX NSCLC): > 100 µM
TGI (A498 renal): > 100 µM
TGI (NCI-H522 lung): > 100 µM
TGI (LOX IMVI melanoma): > 100 µM
TGI (SK-MEL-2 melanoma): > 100 µM
TGI (HCC-2998 colon): > 100 µM
TGI (A549 NSCLC): > 100 µM
TGI (SW-620 colon): > 100 µM
TGI (COLO 205 colon): > 100 µM
TGI (OVCAR-3 ovarian): > 100 µM
TGI (UO-31 renal): > 100 µM
TGI (IGROV1 ovarian): > 100 µM

NS(=O)(=O)c1ccc(NC(=S)NC(=O)Nc2ccc(Cl)c(Cl)c2)cc1
TGI (HOP-92 NSCLC): 48.6 µM
TGI (SK-MEL-5 melanoma): 31.1 µM
TGI (DU-145 prostate): 33.7 µM
TGI (U251 CNS): 37.8 µM
TGI (SF-268 CNS): 32.3 µM
TGI (HOP-62 NSCLC): 36.8 µM
TGI (MALME-3M melanoma): 33.5 µM
TGI (UACC-62 melanoma): 28.7 µM
TGI (EKVX NSCLC): 51 µM
TGI (A498 renal): 7.51 µM
TGI (NCI-H522 lung): 37.3 µM
TGI (LOX IMVI melanoma): 19.1 µM
TGI (SK-MEL-2 melanoma): 34.4 µM
TGI (HCC-2998 colon): 30.9 µM
TGI (A549 NSCLC): 31.7 µM
TGI (SW-620 colon): 35.9 µM
TGI (COLO 205 colon): 32.3 µM
TGI (OVCAR-3 ovarian): 42 µM
TGI (UO-31 renal): 9.66 µM
TGI (IGROV1 ovarian): 39.2 µM

O=C1c2ccccc2-c2nnc3c(c21)Cc1ccccc1C3
TGI (HOP-92 NSCLC): > 10 µM
TGI (SK-MEL-5 melanoma): > 10 µM
TGI (DU-145 prostate): > 10 µM
TGI (U251 CNS): > 10 µM
TGI (SF-268 CNS): > 10 µM
TGI (HOP-62 NSCLC): > 10 µM
TGI (MALME-3M melanoma): > 10 µM
TGI (UACC-62 melanoma): > 10 µM
TGI (EKVX NSCLC): > 10 µM
TGI (A498 renal): > 10 µM
TGI (NCI-H522 lung): > 10 µM
TGI (LOX IMVI melanoma): > 10 µM
TGI (SK-MEL-2 melanoma): > 10 µM
TGI (HCC-2998 colon): > 10 µM
TGI (A549 NSCLC): > 10 µM
TGI (SW-620 colon): > 10 µM
TGI (COLO 205 colon): > 10 µM
TGI (OVCAR-3 ovarian): > 10 µM
TGI (UO-31 renal): > 10 µM
TGI (IGROV1 ovarian): > 10 µM

CC(C)=CCC[C@@H](C)[C@H]1CC[C@@]2(C)[C@@H]3CC[C@H]4C(C)(C)[C@@H](O)CC[C@@]45C[C@@]35CC[C@]12C
TGI (HOP-92 NSCLC): 44.2 µM
TGI (SK-MEL-5 melanoma): > 64.4 µM
TGI (DU-145 prostate): > 100 µM
TGI (U251 CNS): 31.1 µM
TGI (SF-268 CNS): > 76.4 µM
TGI (HOP-62 NSCLC): 59.6 µM
TGI (MALME-3M melanoma): > 100 µM
TGI (UACC-62 melanoma): > 100 µM
TGI (EKVX NSCLC): > 88.8 µM
TGI (A498 renal): > 94.3 µM
TGI (NCI-H522 lung): 49.3 µM
TGI (LOX IMVI melanoma): 56.5 µM
TGI (SK-MEL-2 melanoma): > 100 µM
TGI (HCC-2998 colon): > 31.6 µM
TGI (A549 NSCLC): 48.1 µM
TGI (SW-620 colon): > 100 µM
TGI (COLO 205 colon): > 100 µM
TGI (OVCAR-3 ovarian): > 100 µM
TGI (UO-31 renal): > 66.2 µM
TGI (IGROV1 ovarian): 40.5 µM

C#CCN(Cc1ccc2nc(-c3ccccc3)c(Cl)nc2c1)c1ccc(F)cc1
TGI (HOP-92 NSCLC): > 100 µM
TGI (SK-MEL-5 melanoma): > 100 µM
TGI (DU-145 prostate): > 100 µM
TGI (U251 CNS): > 100 µM
TGI (SF-268 CNS): > 100 µM
TGI (HOP-62 NSCLC): > 100 µM
TGI (MALME-3M melanoma): > 100 µM
TGI (UACC-62 melanoma): > 100 µM
TGI (EKVX NSCLC): > 100 µM
TGI (A498 renal): > 100 µM
TGI (NCI-H522 lung): > 100 µM
TGI (LOX IMVI melanoma): > 100 µM
TGI (SK-MEL-2 melanoma): > 100 µM
TGI (HCC-2998 colon): > 100 µM
TGI (A549 NSCLC): > 100 µM
TGI (SW-620 colon): > 100 µM
TGI (COLO 205 colon): > 100 µM
TGI (OVCAR-3 ovarian): > 100 µM
TGI (UO-31 renal): > 100 µM
TGI (IGROV1 ovarian): > 100 µM
